Counter-ions that a name gives are not always drawn.
Experiments:
[1] = tested on: human engineered cardiac tissue; assay: Validation of engineered cardiac tissue with drugs of known cardiac effects: beat frequency; type: cell-based
Description: Levels were normalized first to β actin and subsequently to the tissue engineered bone control (mean ± s.d., n = 3). […] All scale bars: 100 µm.
The cardiac tissue model was generated from iPS-derived cardiomyocytes and fibroblasts encapsulated in fibrin hydrogel, as in our previous studies. The tissue was formed between two elastic pillars causing cell elongation and alignment, and subjected to electrical stimulation to synchronously contract and work against the pillars.
Specifically, linsitinib was dissolved at a 10 mM concentration in DMSO (Corning) and mixed in with the respective cell medium at a […] concentration unless otherwise noted. Vehicle treatments involved just the addition of DMSO at identical volumes as a control. Tissues were randomly assigned to experimental groups. Medium was changed every day.
To measure the cardiac contractility online, we took contractility videos of the tissues that were analyzed using the native MATLAB code we previously developed. Tissue contractility was measured by tracking the change in tissue area as a function of time. Acquired video frames were inverted and an automated intensity threshold was used to identify cell location in the video frame. First, a baseline time point in the video corresponding to a relaxed tissue state was selected. Absolute differences in cell area from the baseline frame were then calculated to create a time course of cell area changes over time. The resulting time courses were analyzed using a native MATLAB (MATHWorks) automated peak finding algorithm to determine locations of maximum cell contractions in the time profiles. Beat period lengths were determined from the length of time between the pairs of local maxima, and the beat frequencies were determined by inverting beat periods. The rate of proarrhythmic events was calculated by the ratio of the number of proarrhythmic events over the total number of beats.

endothelial barrier = assay: Endothelial barrier permeability response to thrombin; type: cell-based, human; details: endothelialized mesh inserts under flow shear
Description: Vascularization The generation of a patient-specific vascular barrier is critical for functionally connecting tissue compartments while maintaining each tissues, as well as vascular perfusion, under optimal culture conditions resulting in phenotypic stability and maturation, analogous to the separation of interstitial and intravascular compartments in vivo. Transwell mesh inserts in each tissue chamber were coated with fibronectin and seeded with ECs and supporting MSCs with 2:1 ratio (FIG. 36). A stable endothelial barrier was then established by exposure to flow shear (ramped up from 1 to 5 dyn/cm^2 over 5 days of culture). To physiologically integrate engineered tumors and host tissues by vascular flow, the endothelialized membrane needs to separate the interstitial and intravascular spaces, enabling vasculature-mediated tissues crosstalk. […] Such response to an inflammatory agent is critical for metastatic extravasation of cancer cells. The endothelial barrier allowed optimization of culture conditions for each tissue - akin to compartmentalization in the body that avoids the use of “common” media. This approach promoted long term culture (4-12 weeks) of matured tissues, with on-line readouts (cell tracking, viability, function) in longitudinal and dynamic studies. […]

[2] = FITC circulation in the platform (absorption and diffusive transport); type: physicochemical
Protocol: We also circulated fluorescent FITC, which has similar chemical properties as linsitinib including hydrophobicity and molecular weight, and measured its distribution across the 2 tissue chambers in the platform (FIG. 26F). The simulated and empirical results agreed: FITC also reached uniform concentration in all areas of the platform in within 12 hours, after reaching equilibrium across both models at approximately 6 hours. This is significant, since linsitinib is known to have a short half-life of approximately 5 hours. The delayed drug distribution by diffusion through tissues observed here has been documented as an issue for treating solid tumors in patients, with chemotherapeutic concentrations decreasing exponentially with distance from tumor blood vessels and often being limited to the peripheries of tumors even 12 hours after injection.
Fluorescein isothiocyanate (FITC, 10 mM in DMSO; Sigma Aldrich) was circulated for the integrated platform to determine potential hydrophobic small molecule absorption, given its physical and chemical properties. FITC was added at a concentration of 10 µM to 8 mL of 1:1 bone tumor/cardiac mixed media and introduced into the platform. The control was the FITC-containing media in a standard 24-multiwell plate (Corning). Aliquots from the reservoir, bone tumor, and cardiac tissue chambers were taken at 12, 24, 48 and 72 hours and measured for fluorescent signal using a spectrophotometer (Biotek).
Measurements of FITC concentrations were used to estimate the spread of linsitinib within the platform via diffusive circulating transport. Four independent platforms were filled with 8 mL of 1:1 mixed media each, after which 10 µM of FITC was injected into the reservoir. The platforms were connected to the peristaltic pumps run at 100 rpm to generate physiologically relevant fluid flow rate and shear stress. Aliquots were taken from the reservoir, bone and cardiac chambers at 0, 2, 4, 6, and 12 hours post injection, and assayed for fluorescence signal on a spectrophotometer (Biotek).

cardiac muscle = assay: Drug distribution with functional matching in InterOrgan platform: cardiac beat frequency; type: cell-based, human; details: 10 µM introduced into the reservoir at t = 0; assessed at 24 and 72 hours
Liver tissues = assay: Doxorubicin-induced toxicity: liver function assays; type: cell-based, human; details: 30 µM Dox, 72 hours
Protocol: Liver function assays: To assess liver function, […] and urea secretion using a Human ELISA kit (Bethyl, E88-129) and a Urea Nitrogen Test Kit (Fisher Scientific, SB-0580-250), respectively. Comparing these samples to the provided standard, concentrations of albumin and urea were calculated and compared to the secretion for each tissue at Day 0. Assays were performed according to the manufacturer’s instructions.

[3] = tested on: all tissues in the InterOrgan platform; assay: Doxorubicin-induced toxicity in InterOrgan platform: viability and metabolism of all tissues; type: cell-based, human; details: 30 µM Dox, 72 hours after exposure
Protocol: After the acute dose, each engineered tissue was assessed for cell viability, glucose consumption, and mitochondrial activity 72 hours after exposure (FIGS. 13D-F). Functional features for each engineered tissue 72 hours after acute exposure (n=3-5) are shown in FIGS. 13G-J. Over a thousand miRNAs from control and Dox-exposed cardiac tissues were differentially expressed under Isolated and InterOrgan conditions (FIG. 13K).
Treatment with 30 µM Dox, corresponding to the clinically administered cumulative dosage shown to induce cardiotoxicty, was delivered to tissues in the InterOrgan platform through the vascular channel and compared against the Isolated condition (FIG. 13A). […] We also detected decreased cardiac contractility and increased troponin release, both clinical measures of cardiac cell damage (FIG. 13G).
Metabolic Assays: Glucose, lactate, glutamate and glutamine were measured in parallel using the bioluminescent Glucose-Glo™ (Promega, cat. no. J6021), Lactate-Glo™ (Promega, cat. No. J5021), Glutamine/Glutamate-Glo™ (Promega, cat. no. J8021) and Glutamate-Glo™ (Promega, cat. no. J7021) assays according to the manufacturer’s protocols.

Bone tissues = assay: Doxorubicin-induced toxicity: bone function assays; type: cell-based, human; details: 30 µM Dox, 72 hours
Protocol: Bone function assays: To assess the bone’s ability to remodel its matrix, supernatant samples were analyzed for […], (TRAP, Kamiya Biomedical Company, KT-008) and bone sialoprotein (Human Bone Sialoprotein ELISA Kit, Mybiosource, cat. no. MBS261861) after 28 days of culture. These assays were performed according to the manufacturer’s instructions.

[4] = tested on: engineered cardiac tissues; assay: Doxorubicin-induced toxicity: heart function assays; type: cell-based, human; details: 30 µM Dox, 72 hours
Protocol: Heart function assays: Cardiac excitability, force, and beat rate were obtained using our previously established protocols. Cardiac troponin secretion was determined using the Human Cardiac Troponin I ELISA Kit (Abcam, ab200016) according to the manufacturer’s instructions.

skin tissues = assay: Doxorubicin-induced toxicity: skin functional assays; type: cell-based, human; details: 30 µM Dox, 72 hours; both Isolated and InterOrgan cultures
Protocol: Skin functional assays: For drug-induced toxicity studies, electrical current was run through the tissues by placing electrodes on either side of the skin tissue and the change in resistance was subsequently measured and read as a function of the barrier. All tissues were analyzed using the same electrode holder setup to standardize the positions of electrodes with respect to the tissue. To analyze the transport of molecules through the skin barrier, Fluorescein (FITC, ThermoFisher, D3306) powder was added to the epidermis of skin tissues. After 3 hrs, 100 µl of supernatant from the dermal region below the skin tissue was sampled and assayed on a plate reader (BioTex Synergy HTX).

[5] = 10 µM injected into the reservoir
[6] = isoproterenol dose-response study

**Q.** For `CCCCc1oc2ccccc2c1C(=O)c1cc(I)c(OCCN(CC)CC)c(I)c1` [Amiodarone, amiodarone hydrochloride], which beat frequency ([1]; amiodarone 2.418 µM over 48 hours) is on record?
**A.** Its beat frequency is “expected decreases in the beat frequency”.

**Q.** With thrombin as the compound, how does the barrier permeability (endothelial barrier) read?
**A.** Its barrier permeability is “physiologic increase in barrier permeability”.

**Q.** With `Cn1c(=O)c2c(ncn2C)n(C)c1=O` [caffeine] as the compound, how does the beat frequency ([1]; caffeine 50 mM) read?
**A.** Its beat frequency is “physiologic increases in beat frequency”.

**Q.** What does the source list for Fluorescein isothiocyanate [FITC]?
**A.** absorption by the platform ([2]; 10 µM circulated for 72 hours, polysulfone platform compared to multi-well plates): without any measurable absorption by the platform; time to equilibrium across both models [2, 5]: approximately 6 hours; time to uniform concentration in all areas of the platform [2, 5]: ≤ 12 h

**Q.** Which results are given for `CC(C)NCC(O)c1ccc(O)c(O)c1` (stereo not shown) [isoproterenol, isoproterenol hydrochloride]?
**A.** EC50 (beat frequency) [1, 6]: expected values of EC50; beat frequency [1, 6]: increased

**Q.** For `CNC[C@H](O)c1ccc(O)c(O)c1` [epinephrine], which “beat rate of cardiac muscle” value (cardiac muscle) is on record?
**A.** Its value is “increased”.

**Q.** Which “beat rate of cardiac muscle” value (cardiac muscle) does the source give for `CN(CCOc1ccc(NS(C)(=O)=O)cc1)CCc1ccc(NS(C)(=O)=O)cc1` [dofetilide] here?
**A.** Its value is “decreased”.

**Q.** Which results are given for `COc1cccc2c1C(=O)c1c(O)c3c(c(O)c1C2=O)C[C@@](O)(C(=O)CO)C[C@@H]3O[C@H]1C[C@H](N)[C@H](O)[C@H](C)O1` [doxorubicin]?
**A.** albumin (Liver tissues): decreased; urea production (Liver tissues): unaffected; Cell viability [3]: significantly decreased; glucose consumption [3]: significantly decreased; mitochondrial activity [3]: significantly decreased; TRAP responses (Bone tissues): stable; cellularity (Bone tissues): decreased; cardiac contractility [4]: decreased; troponin release [4]: increased; beat frequency ([1]; doxorubicin 1 µM over 72 hours): initially increased, and then decreased following prolonged exposure to the drug; diffusional permeability (skin tissues): increased; electrical resistance (skin tissues): decreased

Reference: US20230287316A1, “INTER-ORGAN PLATFORM WITH TISSUE-SPECIFIC NICHES FOR A MICROPHYSIOLOGICAL SYSTEM ON A CHIP” (THE TRUSTEES OF COLUMBIA UNIVERSITY IN THE CITY OF NEW YORK, priority 2020, published 2023)
